This is an account of results in patent US9701680B2, “Pyrimidine and pyridine compounds and their usage” (HUTCHISON MEDIPHARMA LIMITED, priority 2013, dated 2017).

Where two headings read alike, the source gives them in different places.

One assay deals with Recombinant human FGFR2 (Homo sapiens, UniProt P21802). Put plainly: Transcreener Kinase Assay of FGFR2. In kind it is biochemical.
A further assay deals with KG-1. Kind of assay: Cellular Proliferation Assay (Cell Counting Kit-8), KG-1. It counts as cell-based. The conditions noted are these: Homo sapiens; KG-1 cells, 72 hours; read-out: KG1 IC50. In outline:
(§1)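 Seeding per well: KG-1 30000, SNU-16 5000, RT-112 1000 cells. After 24 h an 8-point series (working dilutions 10 to 0.004 μM in 5% DMSO) was added for 72 h at 37 °C, 5% CO2. CCK-8 OD450 after 1 h, corrected for media background and normalised to untreated cells, gave IC50.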
(Tetrazolium assays rely on reduction of a dye to a coloured formazan, in cell work by metabolically active cells.)

A further assay concerns the target FGFR3 kinase (Homo sapiens, UniProt P22607). Put plainly: Z-Lyte Kinase Assay of FGFR3. It counts as biochemical. In outline: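 Z-LYTE FRET assay, kinase 0.7 μg/ml with Tyr 4 peptide 4 μM (P/K solution), ATP diluted to 300 uM in 1.33× buffer; compound final 1 to 0.00046 μM, 2% DMSO.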
Another assay has as its system SNU-16. Kind of assay: Cellular Proliferation Assay (Cell Counting Kit-8), SNU-16. It counts as cell-based. Conditions: Homo sapiens; SNU-16 cells, 72 hours. The essentials:
as §1

The target of a further assay is Recombinant human FGFR1 (Homo sapiens, UniProt P11362). Kind of assay: Transcreener Kinase Assay of FGFR1. In kind it is biochemical. In outline: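 Recombinant human FGFR1 was reacted with Poly E4Y substrate and ATP for 45 min at 28 °C, with compounds at 1 to 0.0005 µM in 1% DMSO final. Inhibition is relative to the DMSO control, with IC50 from a curve fit.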
Recombinant human FGFR1, sequence (P11362 22-822): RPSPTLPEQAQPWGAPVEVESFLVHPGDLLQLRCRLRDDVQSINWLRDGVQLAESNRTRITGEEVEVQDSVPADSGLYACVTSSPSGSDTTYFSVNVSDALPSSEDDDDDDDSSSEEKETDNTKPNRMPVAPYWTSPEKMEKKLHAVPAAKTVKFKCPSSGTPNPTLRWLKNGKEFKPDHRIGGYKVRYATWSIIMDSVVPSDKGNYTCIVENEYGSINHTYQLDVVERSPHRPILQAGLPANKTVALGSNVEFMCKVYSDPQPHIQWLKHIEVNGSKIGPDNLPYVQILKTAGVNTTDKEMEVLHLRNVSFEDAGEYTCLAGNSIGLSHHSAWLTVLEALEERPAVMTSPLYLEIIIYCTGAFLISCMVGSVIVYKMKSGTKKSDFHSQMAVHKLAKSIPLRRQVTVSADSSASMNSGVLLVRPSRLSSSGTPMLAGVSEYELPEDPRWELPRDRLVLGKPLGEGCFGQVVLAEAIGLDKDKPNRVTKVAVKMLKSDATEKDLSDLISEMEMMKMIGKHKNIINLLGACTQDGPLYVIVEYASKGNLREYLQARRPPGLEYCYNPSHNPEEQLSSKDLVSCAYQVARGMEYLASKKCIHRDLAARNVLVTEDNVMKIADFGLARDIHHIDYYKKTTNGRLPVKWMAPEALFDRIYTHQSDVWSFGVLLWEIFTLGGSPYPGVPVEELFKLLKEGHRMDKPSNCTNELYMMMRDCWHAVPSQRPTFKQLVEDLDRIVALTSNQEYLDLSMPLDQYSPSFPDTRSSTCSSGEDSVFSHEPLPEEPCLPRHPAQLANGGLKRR
The test system of the next assay is RT-112. Kind of assay: Cellular Proliferation Assay (Cell Counting Kit-8), RT-112. It counts as cell-based. Conditions: Homo sapiens; RT-112 cells, 72 hours. The essentials:
as §1

Recombinant human FGFR2, sequence (P21802 22-821): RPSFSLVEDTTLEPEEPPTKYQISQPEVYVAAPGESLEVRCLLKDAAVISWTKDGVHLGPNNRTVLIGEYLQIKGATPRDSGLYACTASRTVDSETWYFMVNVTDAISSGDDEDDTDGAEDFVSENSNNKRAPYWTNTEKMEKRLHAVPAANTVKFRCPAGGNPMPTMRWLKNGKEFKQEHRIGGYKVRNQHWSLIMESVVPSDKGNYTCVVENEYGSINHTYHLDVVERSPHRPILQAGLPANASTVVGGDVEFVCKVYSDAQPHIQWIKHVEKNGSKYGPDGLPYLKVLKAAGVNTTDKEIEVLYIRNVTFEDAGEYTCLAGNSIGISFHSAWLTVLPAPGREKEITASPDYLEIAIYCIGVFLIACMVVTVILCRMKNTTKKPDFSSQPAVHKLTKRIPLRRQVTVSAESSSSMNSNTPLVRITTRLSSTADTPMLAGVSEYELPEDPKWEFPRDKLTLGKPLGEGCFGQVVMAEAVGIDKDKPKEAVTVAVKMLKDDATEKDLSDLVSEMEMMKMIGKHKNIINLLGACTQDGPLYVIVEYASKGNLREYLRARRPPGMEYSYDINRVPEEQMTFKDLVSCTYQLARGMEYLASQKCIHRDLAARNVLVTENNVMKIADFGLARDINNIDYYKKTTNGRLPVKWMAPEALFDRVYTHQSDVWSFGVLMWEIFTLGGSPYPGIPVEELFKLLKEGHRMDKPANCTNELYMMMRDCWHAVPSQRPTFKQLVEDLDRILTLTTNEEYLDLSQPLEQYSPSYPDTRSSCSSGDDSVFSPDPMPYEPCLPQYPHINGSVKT
FGFR3 kinase, sequence (P22607 23-806): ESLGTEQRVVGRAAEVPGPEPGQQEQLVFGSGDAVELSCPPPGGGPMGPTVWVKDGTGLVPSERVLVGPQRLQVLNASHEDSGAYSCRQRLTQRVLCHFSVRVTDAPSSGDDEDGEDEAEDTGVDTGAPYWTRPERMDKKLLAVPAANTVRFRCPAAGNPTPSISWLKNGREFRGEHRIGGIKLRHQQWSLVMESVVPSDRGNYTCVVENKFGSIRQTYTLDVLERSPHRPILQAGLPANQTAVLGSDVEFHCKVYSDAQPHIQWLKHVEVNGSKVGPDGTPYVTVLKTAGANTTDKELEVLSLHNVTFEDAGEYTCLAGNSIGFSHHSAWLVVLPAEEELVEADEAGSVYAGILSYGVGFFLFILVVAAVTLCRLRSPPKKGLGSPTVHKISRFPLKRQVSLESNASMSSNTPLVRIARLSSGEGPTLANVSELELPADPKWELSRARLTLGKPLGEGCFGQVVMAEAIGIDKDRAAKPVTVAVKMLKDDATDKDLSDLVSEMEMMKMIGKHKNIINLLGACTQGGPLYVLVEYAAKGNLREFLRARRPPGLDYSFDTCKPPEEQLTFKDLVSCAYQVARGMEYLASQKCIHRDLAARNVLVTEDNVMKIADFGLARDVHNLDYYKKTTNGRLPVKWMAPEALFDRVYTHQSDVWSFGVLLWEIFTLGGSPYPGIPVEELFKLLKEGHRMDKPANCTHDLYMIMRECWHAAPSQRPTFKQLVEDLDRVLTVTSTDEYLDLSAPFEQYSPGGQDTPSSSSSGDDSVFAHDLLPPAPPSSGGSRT

As usually defined, the IC50 is the midpoint of a concentration-inhibition curve. For `CCN(CC)CCn1cc(Nc2ncc(OCc3c(F)c(OC)cc(C(=O)NC)c3F)cn2)cn1` [Compound 251], the IC50 stood at 23 nM on Recombinant human FGFR2 (read-out: FGFR2 (FP) IC50); 31 nM in the assay on KG-1; 24 nM at FGFR3 kinase; 41 nM in the assay on SNU-16; 25 nM on Recombinant human FGFR1 (read-out: FGFR1 (FP) IC50); 87 nM in the assay on RT-112.

As to `CNC(=O)c1cc(OC)c(F)c(COc2cnc(Nc3cccc(N4C[C@@H](C)N[C@@H](C)C4)c3)nc2)c1F` [Compound 275], the IC50 amounted to 9 nM on Recombinant human FGFR2 (read-out: FGFR2 (FP) IC50); 46 nM in the assay with KG-1; 14 nM on FGFR3 kinase; 18 nM in the assay on SNU-16; 14 nM at Recombinant human FGFR1 (read-out: FGFR1 (FP) IC50); 62 nM in the assay on RT-112.

Consider `CNC(=O)c1cc(CCc2cnc(Nc3ccc(C(C)(C)C#N)nc3)nc2)c(F)c(OC)c1` [Compound 142], for which the concentration for half-maximal inhibition (IC50) at Recombinant human FGFR2 (read-out: FGFR2 (FP) IC50) was 12 nM; with KG-1, 64 nM; on FGFR3 kinase it was 49 nM; with SNU-16, 43 nM; on Recombinant human FGFR1 (read-out: FGFR1 (FP) IC50) it was 31 nM; in the assay on RT-112, 127 nM.

As for `CCN1CCc2cc(Nc3ncc(OCc4cc(C(=O)NC)cc(OC)c4F)cn3)ccc21` [Compound 224], the IC50 stood at 27 nM at Recombinant human FGFR2 (read-out: FGFR2 (FP) IC50); 63 nM with KG-1; 56 nM on FGFR3 kinase; 56 nM in the assay on SNU-16; 65 nM on Recombinant human FGFR1 (read-out: FGFR1 (FP) IC50); 234 nM in the assay with RT-112.

With `CNC(=O)c1cc(COc2cnc(Nc3ccc(N4C[C@@H](C)N(C)[C@@H](C)C4)cc3)nc2)c(F)c(OC)c1` [Compound 267], the IC50 came to 6 nM on Recombinant human FGFR2 (read-out: FGFR2 (FP) IC50); 28 nM in the assay on KG-1; 8 nM against FGFR3 kinase; 17 nM in the assay on SNU-16; 6 nM on Recombinant human FGFR1 (read-out: FGFR1 (FP) IC50); 33 nM in the assay on RT-112.

For `CNC(=O)c1cc(OC)c(Cl)c(COc2cnc(Nc3ccc(N4C[C@@H](C)N[C@@H](C)C4)cc3)nc2)c1F` [Compound 290], the IC50 is 7 nM at Recombinant human FGFR2 (FP); 6 nM in the assay on KG-1; 11 nM against FGFR3 kinase (Z-lyte); 11 nM with SNU-16; 10 nM at Recombinant human FGFR1 (FP); 12 nM in the assay with RT-112.

As to `CNC(=O)c1cc(CCc2cnc(Nc3ccc(N4C[C@@H](C)N(C)[C@@H](C)C4)cc3)nc2)c(F)c(OC)c1` [Compound 171], the half-inhibitory concentration (IC50) at Recombinant human FGFR2 (read-out: FGFR2 (FP) IC50) stood at 8 nM; with KG-1, 8 nM; on FGFR3 kinase, 11 nM; with SNU-16, 16 nM; on Recombinant human FGFR1 (read-out: FGFR1 (FP) IC50), 12 nM; with RT-112, 43 nM.

For the compound `CNC(=O)c1cc(CCc2cnc(Nc3ccc(N4C[C@@H](C)N(C)[C@@H](C)C4)cc3)nc2)c(Cl)c(OC)c1` [Compound 175], the IC50 turned out to be 8 nM on Recombinant human FGFR2 (read-out: FGFR2 (FP) IC50); 11 nM in the assay with KG-1; 6 nM at FGFR3 kinase; 12 nM in the assay with SNU-16; 12 nM on Recombinant human FGFR1 (read-out: FGFR1 (FP) IC50); 30 nM in the assay with RT-112.

For the compound `CNC(=O)c1cc(COc2cnc(Nc3cccc(NC(C)=O)c3)nc2)c(F)c(OC)c1` [Compound 216], the IC50 stood at 7 nM at Recombinant human FGFR2 (read-out: FGFR2 (FP) IC50); 24 nM in the assay with KG-1; 11 nM against FGFR3 kinase; 20 nM with SNU-16; 10 nM at Recombinant human FGFR1 (read-out: FGFR1 (FP) IC50); 132 nM in the assay on RT-112.

On to `CCN(CC)CCOc1ccc(Nc2ncc(OCc3cc(C(=O)NC)cc(OC)c3F)cn2)cc1` [Compound 262], for which the IC50 on Recombinant human FGFR2 (read-out: FGFR2 (FP) IC50) turned out to be 20 nM; with KG-1, 37 nM; on FGFR3 kinase, 21 nM; in the assay on SNU-16, 29 nM; on Recombinant human FGFR1 (read-out: FGFR1 (FP) IC50), 43 nM; with RT-112, 133 nM.

`CNC(=O)c1cc(COc2cnc(Nc3cccc(CCN4CCN(CCOC)CC4)c3)nc2)c(F)c(OC)c1` [Compound 301]: the IC50 on Recombinant human FGFR2 (FP) was found to be 6 nM; in the assay on KG-1, 24 nM; against FGFR3 kinase (Z-lyte), 10 nM; in the assay on SNU-16 it was 11 nM; on Recombinant human FGFR1 (FP), 9 nM; with RT-112 it was 37 nM.

For `C#Cc1ccc(Nc2ncc(OCc3cc(C(=O)NC)cc(OC)c3F)cn2)cn1` [Compound 211], the IC50 at Recombinant human FGFR2 (read-out: FGFR2 (FP) IC50) stood at 16 nM; in the assay with KG-1, 103 nM; against FGFR3 kinase it was 42 nM; in the assay on SNU-16 it was 155 nM; on Recombinant human FGFR1 (read-out: FGFR1 (FP) IC50) it was 40 nM; in the assay on RT-112, 78 nM.

Consider `CNC(=O)c1cc(COc2cnc(Nc3ccc(N4CCN(C)CC4)nc3)nc2)c(Cl)c(OC)c1` [Compound 263], for which the IC50 on Recombinant human FGFR2 (read-out: FGFR2 (FP) IC50) came out at 5 nM; with KG-1, 7 nM; against FGFR3 kinase, 6 nM; with SNU-16 it was 14 nM; at Recombinant human FGFR1 (read-out: FGFR1 (FP) IC50), 5 nM; with RT-112 it was 28 nM.

`CNC(=O)c1cc(COc2cnc(Nc3ccc(N4CCOCC4)c(OC)c3)nc2)c(F)c(OC)c1` [Compound 261]: the concentration for half-maximal inhibition (IC50) at Recombinant human FGFR2 (read-out: FGFR2 (FP) IC50) was 13 nM; with KG-1, 19 nM; against FGFR3 kinase, 18 nM; in the assay on SNU-16, 7 nM; at Recombinant human FGFR1 (read-out: FGFR1 (FP) IC50), 26 nM; in the assay with RT-112, 13 nM.

Regarding `CNC(=O)c1cc(COc2cnc(Nc3ccc(-c4cnn(C)c4)cc3)nc2)c(F)c(OC)c1` [Compound 228], the IC50 at Recombinant human FGFR2 (read-out: FGFR2 (FP) IC50) was determined as 18 nM; with KG-1, 94 nM; against FGFR3 kinase it was 120 nM; with SNU-16, 97 nM; at Recombinant human FGFR1 (read-out: FGFR1 (FP) IC50) it was 29 nM; in the assay on RT-112, 270 nM.

Regarding `CNC(=O)c1cc(CCc2cnc(Nc3cnn(C[C@H](C)O)c3)nc2)c(Cl)c(OC)c1` [Compound 88], the IC50 at Recombinant human FGFR2 (read-out: FGFR2 (FP) IC50) was 5 nM; in the assay with KG-1, 30 nM; at FGFR3 kinase, 3 nM; with SNU-16, 24 nM; at Recombinant human FGFR1 (read-out: FGFR1 (FP) IC50) it was 12 nM; with RT-112 it was 50 nM.

As to `CNC(=O)c1cc(COc2cnc(Nc3cnn(C[C@@H]4COC(C)(C)O4)c3)nc2)c(F)c(OC)c1` [Compound 248], the half-inhibitory concentration (IC50) at Recombinant human FGFR2 (read-out: FGFR2 (FP) IC50) was found to be 11 nM; in the assay on KG-1 it was 6 nM; on FGFR3 kinase, 14 nM; with SNU-16 it was 9 nM; on Recombinant human FGFR1 (read-out: FGFR1 (FP) IC50), 16 nM; in the assay with RT-112 it was 21 nM.

With `CNC(=O)c1cc(COc2cnc(Nc3ccc(CN4CCOCC4)cc3)nc2)c(F)c(OC)c1` [Compound 242], the IC50 came out at 10 nM on Recombinant human FGFR2 (read-out: FGFR2 (FP) IC50); 10 nM in the assay with KG-1; 13 nM against FGFR3 kinase; 14 nM in the assay with SNU-16; 18 nM on Recombinant human FGFR1 (read-out: FGFR1 (FP) IC50); 32 nM in the assay with RT-112.

Turning to `CNC(=O)c1cc(COc2cnc(Nc3cnc(N4C[C@@H](C)N[C@@H](C)C4)c(F)c3)nc2)c(Cl)c(OC)c1` [Compound 292], the IC50 at Recombinant human FGFR2 (FP) worked out at 11 nM; in the assay with KG-1, 46 nM; against FGFR3 kinase (Z-lyte), 14 nM; in the assay with SNU-16 it was 17 nM; at Recombinant human FGFR1 (FP), 13 nM; in the assay on RT-112 it was 70 nM.

For `CCCN1CC(c2ccc(Nc3ncc(OCc4cc(C(=O)NC)cc(OC)c4F)cn3)cn2)C1` [Compound 241], the half-inhibitory concentration (IC50) was found to be 21 nM at Recombinant human FGFR2 (read-out: FGFR2 (FP) IC50); 162 nM with KG-1; 19 nM against FGFR3 kinase; 31 nM in the assay on SNU-16; 31 nM at Recombinant human FGFR1 (read-out: FGFR1 (FP) IC50); 112 nM in the assay on RT-112.

On to `CNC(=O)c1cc(OC)c(Cl)c(COc2cnc(Nc3ccc(N4C[C@@H](C)N[C@@H](C)C4)nc3)nc2)c1F` [Compound 291], for which the concentration for half-maximal inhibition (IC50) on Recombinant human FGFR2 (FP) came to 18 nM; in the assay on KG-1, 15 nM; at FGFR3 kinase (Z-lyte), 17 nM; in the assay on SNU-16 it was 17 nM; on Recombinant human FGFR1 (FP) it was 17 nM; with RT-112, 27 nM.
